Patent US20120196899A1, “METHODS AND PRODUCTS FOR TREATING INFLAMMATION” (Rock Creek Pharmaceuticals, Inc., priority 2010, published 2012)
“And” between values parts separate entries of the source, which are not always exact repeats. Identical values can stand only once.

Key:
[1] = target: nAChR α3/β4 (Homo sapiens, UniProt P30926+P32297); conditions: in presence of 10 μM Ach
Procedure: HEK293 or CHO cells were transiently or stably transfected with the appropriate human ion channel cDNAs. Stable transfectants were selected by coexpression with the antibiotic-resistance gene(s) incorporated into the expression plasmid(s). Selection pressure was maintained by including selection antibiotics in the culture medium. HEK293 cells were cultured in Dulbecco's Modified Eagle Medium/Nutrient Mixture F-12 (D-MEM/F-12) supplemented with 10% fetal bovine serum, 100 U/mL penicillin G sodium, 100 g/mL streptomycin sulfate and appropriate selection antibiotics. CHO cells were cultured in Ham's F-12 supplemented with 10% fetal bovine serum, 100 U/mL penicillin G sodium, 100 g/mL streptomycin sulfate and appropriate selection antibiotics.
For FLIPR TETRA™ assay, cells were plated in 384-well black wall, flat clear bottom microtiter plates (Type: BD Biocoat Poly-D-Lysine Multiwell Cell Culture Plate) at 20,000 to 30,000 cells per well (384-well plate). Cells were incubated at 37° C. overnight or until the cells reached a sufficient density in the wells (near confluent monolayer) to use in fluorescence assays. For α4β2 assay, cells were incubated at 27° C. for at least 7 hours before use.
Experiments were performed with either the FLIPR calcium sensitive dye kit (Fluo-8, ABDbioquest, for nAChR α3/β4 and nAChR α7) or FLIPR membrane potential kit (Molecular Devices, for nAChR α4/β2) according to the manufacturer's instructions. Briefly, cells were incubated with 201 dye for 30 min at 37° C. After dye loading period, for the agonist assay, 5 μl of the test, vehicle, or control articles at concentration of 5 times of final concentration were applied to the cells without stimulation. For the positive allosteric modulation (PAM) and antagonist assay, after test article application, the cells were stimulated with either low dose (for PAM) or high dose (for antagonist) of Ach.
The signal elicited in the presence of the positive control agonist and allosteric modulator (10 μM Ach+1 μM epibatidine) was set to 100% and the signal from the agonist control (10 μM Ach) was set to 0%.

[2] = Body weights, weight gain and food consumption over 14 days after single i.v. dose; format: in vivo, Sprague-Dawley rats; conditions: for day 1 B.W. / day 2 B.W. / day 3 B.W. / day 4 B.W. / day 5 B.W. / day 6 B.W. / day 7 B.W. / day 8 B.W. / day 9 B.W. / day 11 B.W. / day 12 B.W. / day 13 B.W. / day 14 B.W. / day 10 B.W.: individual rats
Procedure: (§1) Body weight and food consumption was measured daily for 14 days. On day 15, urine was collected on all surviving animals. The animals were euthanized and bled via cardiac puncture, and blood was collected for analysis. Tissues were collected, weighed, evaluated for gross abnormalities, and stored in 10% neutral-buffered formalin.
All animals were observed daily.

[3] = Necropsy observations and organ weights, day 15; format: in vivo, Sprague-Dawley rats; conditions: Group B, 0.1 mg/kg, females, individual animals; 0.1 mg/kg
Procedure: as §1
On day 15, urine was collected on all surviving animals for urinalysis. The animals were euthanized and bled via cardiac puncture. Blood was collected for hematology, clinical chemistry, and coagulation analysis. Tissues were collected, weighed, and stored in 10% neutral-buffered formalin for possible future analysis.

[4] = anatabine 0.1 mg/kg single i.v., Male
[5] = anatabine 0.75 mg/kg single i.v., Female
[6] = anatabine 0.75 mg/kg single i.v., Male

Sequence of nAChR α3/β4 (P32297 32-505): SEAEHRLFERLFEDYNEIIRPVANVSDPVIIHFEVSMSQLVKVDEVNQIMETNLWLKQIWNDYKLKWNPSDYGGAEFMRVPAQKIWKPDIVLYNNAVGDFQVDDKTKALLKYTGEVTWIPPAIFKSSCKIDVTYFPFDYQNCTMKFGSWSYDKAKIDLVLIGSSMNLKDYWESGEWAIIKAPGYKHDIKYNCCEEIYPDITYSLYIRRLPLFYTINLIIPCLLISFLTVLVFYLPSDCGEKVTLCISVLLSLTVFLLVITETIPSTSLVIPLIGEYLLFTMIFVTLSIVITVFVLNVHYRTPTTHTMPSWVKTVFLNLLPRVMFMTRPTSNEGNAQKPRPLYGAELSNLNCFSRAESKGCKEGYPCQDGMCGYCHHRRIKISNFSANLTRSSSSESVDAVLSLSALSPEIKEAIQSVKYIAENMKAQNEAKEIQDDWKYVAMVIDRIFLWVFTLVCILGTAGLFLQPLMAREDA
Sequence of nAChR α3/β4 (P30926 22-498): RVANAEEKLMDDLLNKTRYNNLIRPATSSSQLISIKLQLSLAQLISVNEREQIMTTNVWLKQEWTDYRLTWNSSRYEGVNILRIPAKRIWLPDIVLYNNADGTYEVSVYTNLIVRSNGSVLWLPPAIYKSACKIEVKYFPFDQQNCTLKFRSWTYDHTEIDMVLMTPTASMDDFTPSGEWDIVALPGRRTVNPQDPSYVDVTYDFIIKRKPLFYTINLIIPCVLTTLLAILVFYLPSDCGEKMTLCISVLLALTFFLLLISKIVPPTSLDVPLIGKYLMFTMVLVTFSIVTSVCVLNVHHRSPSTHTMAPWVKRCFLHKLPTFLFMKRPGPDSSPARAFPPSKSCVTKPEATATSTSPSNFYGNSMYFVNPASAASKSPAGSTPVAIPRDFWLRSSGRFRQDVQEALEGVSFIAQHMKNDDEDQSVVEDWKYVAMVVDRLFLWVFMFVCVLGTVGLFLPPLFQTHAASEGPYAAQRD

For `C1=CCC(c2cccnc2)NC1` (racemic) [Anatabine, 1,2,3,6-tetrahydro-[2,3′]bipyridinyl], the potentiation [1] was “Neither nicotine nor anatabine potentiated the activity”, the “day 1 B.W.” value ([2]; 0.1 mg/kg, F) was 211.1 g and 201.0 g and 210.9 g and the “day 2 B.W.” value ([2]; 0.1 mg/kg, F) was 223.9 g and 215.1 g and 208.1 g and 208.8 g and 212.8 g. For the same molecule, the “day 3 B.W.” value ([2]; 0.1 mg/kg, F) was 230.8 g and 213.2 g and 209.1 g (2×) and 219.3 g, the “day 4 B.W.” value ([2]; 0.1 mg/kg, F) was 242.3 g and 222.4 g and 220.7 g and 211.4 g and 224.7 g and the “day 5 B.W.” value ([2]; 0.1 mg/kg, F) was 246.9 g and 226.4 g and 219.3 g and 221.0 g and 229.5 g. The “day 6 B.W.” value ([2]; 0.1 mg/kg, F) was 241.1 g and 235.5 g and 220.1 g and 218.8 g and 222.9 g, the “day 7 B.W.” value ([2]; 0.1 mg/kg, F) was 246.5 g and 226.4 g and 221.7 g and 222.1 g and 232.1 g and the “day 8 B.W.” value ([2]; 0.1 mg/kg, F) was 252.0 g and 232.0 g and 227.0 g and 235.0 g. For the same molecule, the “day 9 B.W.” value ([2]; 0.1 mg/kg, F) was 255.1 g and 239.9 g and 224.1 g and 232.0 g, the “day 11 B.W.” value ([2]; 0.1 mg/kg, F) was 274.8 g and 238.5 g and 233.9 g and 245.6 g and 245.4 g and the “day 12 B.W.” value ([2]; 0.1 mg/kg, F) was 277.2 g and 246.3 g and 242.0 g and 240.0 g and 241.6 g. For the same molecule, the “day 13 B.W.” value ([2]; 0.1 mg/kg, F) was 271.8 g and 241 g and 242.1 g, the “day 14 B.W.” value ([2]; 0.1 mg/kg, F) was 272.7 g and 248.5 g and 243.9 g and 255.6 g and 239.2 g and the “day 1 B.W.” value ([2]; 0.1 mg/kg, M) was 233.7 g and 235.0 g and 243.5 g and 239.9 g. For the same molecule, the “day 2 B.W.” value ([2]; 0.1 mg/kg, M) was 257.0 g and 235.1 g and 231.0 g and 253.5 g and 247.3 g, the “day 3 B.W.” value ([2]; 0.1 mg/kg, M) was 270.0 g and 251.0 g and 252.0 g and 259.4 g and the “day 4 B.W.” value ([2]; 0.1 mg/kg, M) was 286.0 g and 270.0 g and 271.2 g and 280.5 g and 273.7 g. For the same molecule, the “day 5 B.W.” value ([2]; 0.1 mg/kg, M) was 296.5 g and 273.8 g and 278.5 g and 288.3 g and 286.6 g, the “day 6 B.W.” value ([2]; 0.1 mg/kg, M) was 301.8 g and 278 g and 284.3 g and 288.3 g and 219.6 g and the “day 7 B.W.” value ([2]; 0.1 mg/kg, M) was 318.2 g and 293.8 g and 297.6 g and 301.2 g and 300.7 g. The “day 8 B.W.” value ([2]; 0.1 mg/kg, M) was 327.0 g and 309.0 g and 310.0 g and 311.0 g, the “day 9 B.W.” value ([2]; 0.1 mg/kg, M) was 336.8 g and 303.4 g and 310.0 g and 318.7 g and 317.4 g and the “day 10 B.W.” value ([2]; 0.1 mg/kg, M) was 346.4 g and 312.9 g and 319.9 g and 322.3 g and 330.4 g. The “day 11 B.W.” value ([2]; 0.1 mg/kg, M) was 365.7 g and 331.0 g and 343.8 g and 346.9 g and 348.8 g, the “day 12 B.W.” value ([2]; 0.1 mg/kg, M) was 359.9 g and 320.0 g and 341.9 g and 347.3 g and 360.9 g and the “day 13 B.W.” value ([2]; 0.1 mg/kg, M) was 367 g and 331 g and 349 g and 334.4 g and 360 g. The “day 14 B.W.” value ([2]; 0.1 mg/kg, M) was 391.0 g and 347.3 g and 368.8 g and 353.5 g and 373.8 g, the “day 1 B.W.” value ([2]; 0.75 mg/kg, F) was 208.9 g and 207.7 g and 219.1 g and 196.7 g and 199.5 g and the “day 2 B.W.” value ([2]; 0.75 mg/kg, F) was 206.2 g and 210.0 g (2×) and 225.5 g and 210.1 g. The “day 3 B.W.” value ([2]; 0.75 mg/kg, F) was 214.0 g (2×) and 224.8 g and 213.6 g and 210.8 g, the “day 6 B.W.” value ([2]; 0.75 mg/kg, F) was 224.4 g and 217.8 g and 236.2 g and 214.7 g and 221.4 g and the “day 7 B.W.” value ([2]; 0.75 mg/kg, F) was 227.4 g and 243.2 g and 222 g and 219.3 g. The “day 8 B.W.” value ([2]; 0.75 mg/kg, F) was 232.0 g and 220.0 g and 243.0 g and 224.6 g and 227.4 g, the “day 9 B.W.” value ([2]; 0.75 mg/kg, F) was 237.3 g and 226.3 g and 247.6 g and 229.1 g and 230.6 g and the “day 10 B.W.” value ([2]; 0.75 mg/kg, F) was 239.3 g and 232.2 g and 252.7 g and 230.9 g and 233.5 g. The “day 11 B.W.” value ([2]; 0.75 mg/kg, F) was 250.9 g and 239.1 g and 268.8 g and 240.9 g and 244.1 g, the “day 12 B.W.” value ([2]; 0.75 mg/kg, F) was 249.7 g and 233.5 g and 259.6 g and 241.6 g and 247.9 g and the “day 13 B.W.” value ([2]; 0.75 mg/kg, F) was 248 g and 237.2 g and 268 g and 234 g and 243 g. The “day 14 B.W.” value ([2]; 0.75 mg/kg, F) was 251.5 g and 242.8 g and 274.1 g and 250.7 g and 250.6 g, the “day 4 B.W.” value ([2]; 0.75 mg/kg, F, second one headed day 4) was 225.4 g and 219.3 g and 237.1 g and 220.8 g and 227.6 g and the “day 4 B.W.” value ([2]; 0.75 mg/kg, F, day 4) was 230.0 g and 214.7 g and 232.4 g and 222.1 g and 220.0 g. The “day 1 B.W.” value ([2]; 0.75 mg/kg, M) was 242.7 g and 251.4 g and 231.9 g and 226.8 g and 239.8 g, the “day 2 B.W.” value ([2]; 0.75 mg/kg, M) was 259.7 g and 240.0 g and 232.1 g and 247.2 g and the “day 3 B.W.” value ([2]; 0.75 mg/kg, M) was 261.1 g and 269.1 g and 252.0 g and 243.0 g and 256.1 g. For the same molecule, the “day 6 B.W.” value ([2]; 0.75 mg/kg, M) was 282.4 g and 287.6 g and 268.2 g (2×) and 281.3 g, the “day 7 B.W.” value ([2]; 0.75 mg/kg, M) was 294.5 g and 302.9 g and 281.8 g and 274.1 g and 287.1 g and the “day 8 B.W.” value ([2]; 0.75 mg/kg, M) was 300.0 g and 310.6 g and 293.4 g and 284.2 g. The “day 9 B.W.” value ([2]; 0.75 mg/kg, M) was 307.6 g and 319.8 g and 298.8 g and 296.2 g and 298.5 g, the “day 10 B.W.” value ([2]; 0.75 mg/kg, M) was 317.2 g and 331.9 g and 307.9 g and 303.8 g and 306.8 g and the “day 11 B.W.” value ([2]; 0.75 mg/kg, M) was 334.6 g and 339.8 g and 329.4 g and 316.1 g and 321.9 g. The “day 12 B.W.” value ([2]; 0.75 mg/kg, M) was 327.6 g and 325.4 g and 322.5 g and 324.8 g and 331.1 g, the “day 13 B.W.” value ([2]; 0.75 mg/kg, M) was 335.6 g and 338 g and 330 g and 326 g (2×) and the “day 14 B.W.” value ([2]; 0.75 mg/kg, M) was 351.9 g and 357.9 g and 345.1 g and 339 g and 335.9 g. The “day 4 B.W.” value ([2]; 0.75 mg/kg, M, second one headed day 4) was 282.3 g and 287.6 g and 269.9 g and 262.0 g and 275.7 g, the “day 4 B.W.” value ([2]; 0.75 mg/kg, M, day 4) was 275.7 g and 286.0 g and 268.0 g and 256.3 g and 271.2 g and the “Mean weigth increase by day 14” value ([2]; anatabine 0.1 mg/kg single i.v., Female) was 39.0 g. For the same molecule, the Mean food consumption/day [2, 4] was 31.0 g, the “Mean weigth increase by day 14” value [2, 4] was 132.5 g and the Mean food consumption/day [2, 5] was 19.7 g. For the same molecule, the “Mean weigth increase by day 14” value [2, 5] was 43.1 g, the Mean food consumption/day [2, 6] was 27.8 g and the “Mean weigth increase by day 14” value [2, 6] was 111.6 g. For the same molecule, the “Tissue Collection Weights: Brain” value [3] was 1.91 g and 1.89 g (2×) and 1.75 g and 1.86 g, the “Tissue Collection Weights: Heart” value [3] was 1.29 g and 1.12 g and 0.95 g and 1.05 g and 1.25 g and the “Tissue Collection Weights: Kidneys” value [3] was 2.46 g and 2.02 g (2×) and 2.14 g and 2.25 g. For the same molecule, the “Tissue Collection Weights: Liver” value [3] was 11.54 g and 10.09 g and 9.94 g and 12.94 g and 9.67 g, the “Tissue Collection Weights: Lungs” value [3] was 1.42 g and 1.39 g and 1.15 g and 1.52 g and 1.59 g and the “Tissue Collection Weights: Ovaries/uterus” value [3] was 0.96 g and 1.79 g and 0.84 g and 1.42 g and 0.70 g. For the same molecule, the “Tissue Collection Weights: Small intestine” value [3] was 0.87 g and 0.71 g and 0.55 g and 0.49 g and 0.63 g and the “Tissue Collection Weights: Spleen” value [3] was 0.79 g and 0.62 g and 0.51 g and 0.67 g and 0.65 g.
